Experimental data published in ChEMBL document CHEMBL1157750, “Synthesis and evaluation of 17alpha-arylestradiols as ligands for estrogen receptor alpha and beta” (J Med Chem, 2010).
“And” between values parts separate entries of the source, which are not always exact repeats. Equal values may be shown once. The source made the active and inactive calls. The calls are words filed in the database; no cut-off is given here.

Assays:
MCF7 [1] = experiment: Estrogenic activity in human MCF7 cells assessed as induction of cell proliferation at 0.001 to 1 nM after 6 days by fluorescence assay; type: functional, cell-based
MCF7 [2] = experiment: Estrogenic activity in human MCF7 cells assessed as induction of cell proliferation at 100 nM after 6 days by fluorescence assay; type: functional, cell-based
Estrogen receptor beta [3] = biological target: T1, Estrogen receptor beta (Homo sapiens, UniProt Q92731)
Description: Binding affinity to ERbeta by fluorescence polarization-based competitive binding assay

Estrogen receptor beta [4] = biological target: T1, Estrogen receptor beta; remark: listed apart in the source
Description: Transactivation of human ERbeta expressed in HEK293 cells after 18 hrs by luciferase reporter gene assay

MCF7 [5] = experiment: Estrogenic activity in human MCF7 cells assessed as induction of cell proliferation at 1 nM after 6 days by fluorescence assay; type: functional, cell-based
Estrogen receptor [6] = biological target: T2, Estrogen receptor (Homo sapiens, UniProt P03372)
T2 sequence (P03372 whole entry): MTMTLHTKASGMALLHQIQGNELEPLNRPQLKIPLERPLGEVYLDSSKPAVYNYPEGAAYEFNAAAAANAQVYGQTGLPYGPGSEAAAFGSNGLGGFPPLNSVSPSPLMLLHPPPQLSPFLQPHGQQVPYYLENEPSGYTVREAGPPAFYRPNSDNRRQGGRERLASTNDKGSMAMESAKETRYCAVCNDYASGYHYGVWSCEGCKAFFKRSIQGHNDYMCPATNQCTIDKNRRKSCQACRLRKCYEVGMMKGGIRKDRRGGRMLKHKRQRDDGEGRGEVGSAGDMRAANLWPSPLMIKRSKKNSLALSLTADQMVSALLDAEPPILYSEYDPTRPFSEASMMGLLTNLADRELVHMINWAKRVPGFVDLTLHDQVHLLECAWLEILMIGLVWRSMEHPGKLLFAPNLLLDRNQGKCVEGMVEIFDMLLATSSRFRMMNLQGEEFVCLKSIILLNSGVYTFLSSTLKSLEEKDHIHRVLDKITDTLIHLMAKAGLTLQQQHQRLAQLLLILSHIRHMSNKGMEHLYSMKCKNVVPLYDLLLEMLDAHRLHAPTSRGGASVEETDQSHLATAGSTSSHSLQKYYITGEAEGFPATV
Description: Binding affinity to ERalpha by fluorescence polarization-based competitive binding assay

Estrogen receptor [7] = biological target: T2, Estrogen receptor; remark: listed apart in the source
Description: Transactivation of human ERalpha expressed in HEK293 cells after 18 hrs by luciferase reporter gene assay

Homo sapiens = organism: Homo sapiens; experiment: Selectivity ratio of EC50 for human ERbeta to EC50 for human ERalpha

T1 sequence (Q92731 whole entry): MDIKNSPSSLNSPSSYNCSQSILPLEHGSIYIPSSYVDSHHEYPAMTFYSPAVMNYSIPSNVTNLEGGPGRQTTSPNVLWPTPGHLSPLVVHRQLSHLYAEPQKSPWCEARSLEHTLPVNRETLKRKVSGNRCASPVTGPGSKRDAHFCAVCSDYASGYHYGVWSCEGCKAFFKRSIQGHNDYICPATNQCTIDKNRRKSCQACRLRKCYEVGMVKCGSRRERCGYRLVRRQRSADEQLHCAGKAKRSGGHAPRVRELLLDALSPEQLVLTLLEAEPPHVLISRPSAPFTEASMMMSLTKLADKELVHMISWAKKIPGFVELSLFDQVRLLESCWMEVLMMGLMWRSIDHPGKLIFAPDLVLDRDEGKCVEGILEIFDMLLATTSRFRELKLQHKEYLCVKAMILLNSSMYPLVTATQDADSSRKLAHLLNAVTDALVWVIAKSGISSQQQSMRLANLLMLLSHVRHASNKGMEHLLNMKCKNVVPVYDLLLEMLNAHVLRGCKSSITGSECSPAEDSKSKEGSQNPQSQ

SMILES | Activity (MCF7 [1]) | Activity (MCF7 [2]) | IC50 (Estrogen receptor beta [3]) | EC50 (Estrogen receptor beta [4]) | Activity (MCF7 [5]) | IC50 (Estrogen receptor [6]) | EC50 (Estrogen receptor [7]) | Ratio EC50 (Homo sapiens)
CCOC(=O)C1(C#N)Cc2ccc([C@]3(O)CC[C@H]4[C@@H]5CCc6cc(O)ccc6[C@H]5CC[C@@]43C)cc2C1 (some centres not stated) | Active | Active | 53.6 nM | 22.7 nM | – | – | – | –
CC(=O)C1(C(C)=O)Cc2ccc([C@]3(O)CC[C@H]4[C@@H]5CCc6cc(O)ccc6[C@H]5CC[C@@]43C)cc2C1 | – | Active | 254 nM | 221 nM | Active | 243 nM | 336 nM | –
CCOC(=O)C1(C(=O)OCC)Cc2ccc([C@]3(O)CC[C@H]4[C@@H]5CCc6cc(O)ccc6[C@H]5CC[C@@]43C)cc2C1 | Active | Active | 1080 nM | 175 nM and 174 nM | – | 492 nM | 14.1 nM | 13
CCOC(=O)C1(C(C)=O)Cc2ccc([C@]3(O)CC[C@H]4[C@@H]5CCc6cc(O)ccc6[C@H]5CC[C@@]43C)cc2C1 (some centres not stated) | Active | Active | 319 nM | 34.6 nM | – | – | – | –
C[C@]12CC[C@@H]3c4ccc(O)cc4CC[C@H]3[C@@H]1CC[C@@]2(O)c1ccc2c(c1)COC2 | Active | Active | – | – | – | – | – | –
Cc1ccc(S(=O)(=O)N2Cc3ccc([C@]4(O)CC[C@H]5[C@@H]6CCc7cc(O)ccc7[C@H]6CC[C@@]54C)cc3C2)cc1 | Active | Active | 500 nM | 242 nM | – | – | – | –
